In US7459481B2, “Stimulation of CPT-1 as a means to reduce weight” (The Johns Hopkins University School of Medicine Licensing …, priority 2002, dated 2008):

Tested on: 3T3-L1 adipocytes
Assay: Total cellular ATP in differentiated 3T3-L1 adipocytes
Assay type: cell-based, mouse
Details: 20 μg/ml or greater, 2 hours, FIG. 7
Description: 1×10^5 MCF-7 cells were plated in 96 well plates. Cells were treated with C75 or vehicle. After 2 hours, ATP was measured using a luciferase assay using the ATP Bioluminescence Kit CLS II (Roche) following the manufacturer's protocol. Plates were read by a Perkin Elmer Wallac Victor^2 1420 luminometer. […] Similar results were obtained after 1 hr incubation with C75. Thus, cellular energy production increased as a result of C75 increasing fatty acid oxidation.
To expand the study of effects of C75 on fatty acid metabolism beyond cancer cell lines to normal adipocytes, differentiated (non-transformed) mouse NIH 3T3-L1 adipocytes were used in assays similar to those performed with the MCF-7 cells. 3T3-L1 cells were obtained from the American Type Culture Collection, and cells were cultured in DMEM with high glucose (4.5 g/l ) (Gibco 12100-046) with 10% fetal calf serum and Biotin (Sigma B-4639) 0.008 g/L. Differentiation was initiated three days after the cells were confluent, when the standard culture medium was replaced with differentiation medium. […] The differentiated cells were ready to be used for experiments in 7-10 days.
C75 increased CPT-1 activity and fatty acid metabolism in the NIH 3T3-L1 cells differentiated into adipocytes. […] CPT-1 activity, fatty acid oxidation, and total cellular ATP were measured as described in Examples 2, 1, and 4. […]

## C=C1C(=O)OC(CCCCCCCC)C1C(=O)O (stereo not shown) [Compound C75]
  levels of ATP: significantly increased
